Entries after “also recorded” stand apart in the source; their conditions may differ.
Legend:
[1] = Dissolution of type-B fenolamine crystal form in six solvent systems; assay type: physicochemical
Experimental: The solubility was evaluated by using a type-B fenolamine crystal form sample (fenolamine:ethanol=1:0.2) having a crystallized ethanol content of 2.0%.
The solvent systems were selected by: (1) referring to solvent systems used in the dissolution determination method in the Appendix of the Pharmacopoeia; (2) referring to the digestive solution pH in various organs of an organism; (3) improving the solubility of water-insoluble drugs. Based the above three references, solvent systems with six pH values were set up: a 0.1 N hydrochloric acid solution with pH 1.2; an acetate buffer solution with pH 4.5; a phosphate buffer solution with pH 6.5; an water solution with pH 6.7; a 0.2% SDS solution with pH 7.0; a 0.5% SDS solution with pH 7.3.
Measurement was carried out according to the solubility determination method (“Guidelines for Dissolution Test Technique of General Oral Solid Preparations (Draft)”, October 2012, the Drug Review Center). With the percentage of the samples dissolved by mass calculated from the absorbance data, solubility curves were respectively drawn with time as abscissa and dissolved contents as ordinate and shown in FIG. 10.

[2] = Stability of type-B fenolamine crystal form solid (influencing factors: high temperature, high humidity, illumination); assay type: physicochemical; conditions: starting ethanol content 2.58%
Experimental: Type-B fenolamine crystal form samples (having a crystallized ethanol content of 2.58%) were placed in open clean watch glasses, and kept under conditions of a high temperature of 60° C., a high temperature of 40° C., and 25° C., a relative humidity of 90%±5%, and illumination at 4500 lx±500 lx for 10 days, and samples were taken on Days 0, 5, and 10. Powder X-ray diffraction (with a resultant pattern consistent to that in FIG. 1) and gas chromatography means were used for analysis.

Dissolution (percentage of sample dissolved by mass) ([1]; 0.1N hydrochloric acid pH 1.2, 5 min): 0.00%
Dissolution (percentage of sample dissolved by mass) ([1]; 0.1N hydrochloric acid pH 1.2, 15 min): 0.00%
Dissolution (percentage of sample dissolved by mass) ([1]; 0.1N hydrochloric acid pH 1.2, 30 min): 2.35%
Dissolution (percentage of sample dissolved by mass) ([1]; 0.1N hydrochloric acid pH 1.2, 60 min): 5.75%
Dissolution (percentage of sample dissolved by mass) ([1]; 0.1N hydrochloric acid pH 1.2, 120 min): 11.42%
Dissolution (percentage of sample dissolved by mass) ([1]; 0.1N hydrochloric acid pH 1.2, 180 min): 14.07%
Dissolution (percentage of sample dissolved by mass) ([1]; 0.1N hydrochloric acid pH 1.2, 240 min): 18.54%
Dissolution (percentage of sample dissolved by mass) ([1]; 0.1N hydrochloric acid pH 1.2, 300 min): 20.04%
Dissolution (percentage of sample dissolved by mass) ([1]; 0.1N hydrochloric acid pH 1.2, 360 min): 23.69%
Dissolution (percentage of sample dissolved by mass) ([1]; 0.1N hydrochloric acid pH 1.2, 420 min): 25.07%
Dissolution (percentage of sample dissolved by mass) ([1]; 0.2% SDS pH 7.0, 5 min): 21.57%
Dissolution (percentage of sample dissolved by mass) ([1]; 0.2% SDS pH 7.0, 15 min): 32.50%
Dissolution (percentage of sample dissolved by mass) ([1]; 0.2% SDS pH 7.0, 30 min): 42.43%
Dissolution (percentage of sample dissolved by mass) ([1]; 0.2% SDS pH 7.0, 60 min): 59.66%
Dissolution (percentage of sample dissolved by mass) ([1]; 0.2% SDS pH 7.0, 120 min): 91.98%
Dissolution (percentage of sample dissolved by mass) ([1]; 0.2% SDS pH 7.0, 180 min): 92.35%
Dissolution (percentage of sample dissolved by mass) ([1]; 0.2% SDS pH 7.0, 240 min): 95.75%
Dissolution (percentage of sample dissolved by mass) ([1]; 0.2% SDS pH 7.0, 300 min): 95.82%
Dissolution (percentage of sample dissolved by mass) ([1]; 0.2% SDS pH 7.0, 360 min): 95.90%
Dissolution (percentage of sample dissolved by mass) ([1]; 0.2% SDS pH 7.0, 420 min): 95.93%
Dissolution (percentage of sample dissolved by mass) ([1]; 0.5% SDS pH 7.3, 5 min): 35.04%
Dissolution (percentage of sample dissolved by mass) ([1]; 0.5% SDS pH 7.3, 15 min): 55.30%
Dissolution (percentage of sample dissolved by mass) ([1]; 0.5% SDS pH 7.3, 30 min): 73.32%
Dissolution (percentage of sample dissolved by mass) ([1]; 0.5% SDS pH 7.3, 60 min): 86.90%
Dissolution (percentage of sample dissolved by mass) ([1]; 0.5% SDS pH 7.3, 120 min): 97.35%
Dissolution (percentage of sample dissolved by mass) ([1]; 0.5% SDS pH 7.3, 180 min): 97.69%
Dissolution (percentage of sample dissolved by mass) ([1]; 0.5% SDS pH 7.3, 240 min): 98.40%
Dissolution (percentage of sample dissolved by mass) ([1]; 0.5% SDS pH 7.3, 300 min): 98.47%
Dissolution (percentage of sample dissolved by mass) ([1]; 0.5% SDS pH 7.3, 360 min): 98.51%
Dissolution (percentage of sample dissolved by mass) ([1]; 0.5% SDS pH 7.3, 420 min): 100.00%
Dissolution (percentage of sample dissolved by mass) ([1]; Acetate buffer pH 4.5, 5 min): 0.00%
Dissolution (percentage of sample dissolved by mass) ([1]; Acetate buffer pH 4.5, 15 min): 0.00%
Dissolution (percentage of sample dissolved by mass) ([1]; Acetate buffer pH 4.5, 30 min): 0.49%
Dissolution (percentage of sample dissolved by mass) ([1]; Acetate buffer pH 4.5, 60 min): 2.57%
Dissolution (percentage of sample dissolved by mass) ([1]; Acetate buffer pH 4.5, 120 min): 7.54%
Dissolution (percentage of sample dissolved by mass) ([1]; Acetate buffer pH 4.5, 180 min): 11.34%
Dissolution (percentage of sample dissolved by mass) ([1]; Acetate buffer pH 4.5, 240 min): 15.82%
Dissolution (percentage of sample dissolved by mass) ([1]; Acetate buffer pH 4.5, 300 min): 19.51%
Dissolution (percentage of sample dissolved by mass) ([1]; Acetate buffer pH 4.5, 360 min): 20.15%
Dissolution (percentage of sample dissolved by mass) ([1]; Acetate buffer pH 4.5, 420 min): 20.71%
Dissolution (percentage of sample dissolved by mass) ([1]; Phosphate buffer pH 6.5, 5 min): 49.51%
Dissolution (percentage of sample dissolved by mass) ([1]; Phosphate buffer pH 6.5, 15 min): 49.81%
Dissolution (percentage of sample dissolved by mass) ([1]; Phosphate buffer pH 6.5, 30 min): 49.89%
Dissolution (percentage of sample dissolved by mass) ([1]; Phosphate buffer pH 6.5, 60 min): 49.96%
Dissolution (percentage of sample dissolved by mass) ([1]; Phosphate buffer pH 6.5, 120 min): 51.08%
Dissolution (percentage of sample dissolved by mass) ([1]; Phosphate buffer pH 6.5, 180 min): 51.72%
Dissolution (percentage of sample dissolved by mass) ([1]; Phosphate buffer pH 6.5, 240 min): 51.87%
Dissolution (percentage of sample dissolved by mass) ([1]; Phosphate buffer pH 6.5, 300 min): 53.32%
Dissolution (percentage of sample dissolved by mass) ([1]; Phosphate buffer pH 6.5, 360 min): 53.40%
Dissolution (percentage of sample dissolved by mass) ([1]; Phosphate buffer pH 6.5, 420 min): 53.47%
Dissolution (percentage of sample dissolved by mass) ([1]; Water pH 6.7, 5 min): 0.00%
Dissolution (percentage of sample dissolved by mass) ([1]; Water pH 6.7, 15 min): 0.34%
Dissolution (percentage of sample dissolved by mass) ([1]; Water pH 6.7, 30 min): 2.01%
Dissolution (percentage of sample dissolved by mass) ([1]; Water pH 6.7, 60 min): 5.26%
Dissolution (percentage of sample dissolved by mass) ([1]; Water pH 6.7, 120 min): 11.42%
Dissolution (percentage of sample dissolved by mass) ([1]; Water pH 6.7, 180 min): 20.22%
Dissolution (percentage of sample dissolved by mass) ([1]; Water pH 6.7, 240 min): 21.94%
Dissolution (percentage of sample dissolved by mass) ([1]; Water pH 6.7, 300 min): 26.04%
Dissolution (percentage of sample dissolved by mass) ([1]; Water pH 6.7, 360 min): 28.96%
Dissolution (percentage of sample dissolved by mass) ([1]; Water pH 6.7, 420 min): 32.13%
Crystallized ethanol content after storage ([2]; 10 days at high temperature): about 2.1%
Compound: COc1ccc(OC)c(/C(=C\c2ccc(O)c(OC)c2)C(=O)NCCc2ccc(O)cc2)c1 [type-B fenolamine crystal form, trans-2-(2,5-dimethoxyphenyl)-3-(4-hydroxy-3-methoxyphenyl)-N-(4-hydroxyphenylethyl) acrylamide]
Solubility in six solvent systems imitating different pH environments in human body (in words) ([1]; compared with type-F crystal form): good solubility; also recorded: superior to the type-F crystal form
Stability of the crystal form (powder X-ray diffraction and gas chromatography) ([2]; 60° C., 40° C., 25° C. with RH 90%±5%, 4500 lx±500 lx, 10 days): stable under conditions of high temperature, high humidity and light illumination
